# Results taken from patent US20250049953A1, “TREATMENT AND METHOD FOR INHIBITING LATE NA CURRENT” (THE TRUSTEES OF COLUMBIA UNIVERSITY IN THE CITY OF NEW YORK, priority 2022, published 2025).
# No end group written: not given here.
# Columns and labels:
# NaV1.5 IQ/AA mutant = biological target: T1, NaV1.5 IQ/AA mutant (Homo sapiens, UniProt Q14524, I1908A/Q1909A); test: Multichannel recordings of late Na current, NaV1.5 IQ/AA mutant in HEK293 cells; format: cell-based; conditions: for change in INa,L: co-expression with NaV1.5 IQ/AA in HEK293 cells
# T1 construct: expressed in transfected cells; host or cells: HEK293 (ATCC CRL1573)
# Text: The human NaV1.5 channel corresponds to clone M77235.1 (GenBank) and is subcloned into pGW 1 vector with HindIII and SaII. To facilitate construction of channelopathic mutations in the channel carboxy-terminus, we introduced silent mutations into NaV1.5 to introduce an NruI cutting site near the channel carboxy-terminus (5329-gtggccacg-5337 into 5329-gtCgcGacg-5337). Subsequently, we used overlap-extension PCR and ligated the PCR product into NaV1.5/pGW1 using NruI and XbaI restriction sites (mutations: E1784K, S1904L, IQ/AA, and Q1909R). For generating the ΔKPQ and IFM/IQM mutations, we used overlap-extension PCR and ligated in NaV1.5/pGW1 following restriction digest using KpnI and XbaI site. For generation of NaV1.5 truncations, we PCR amplified relevant segments using a forward primer upstream of the KpnI site and a reverse primer that truncated at the appropriate location (Δ1810 and Δ1885) and included an XbaI site and ligated into NaV1.5/pW1 vector. For LILA/WICW mutations, we used overlap extension and used restriction site AgeI and NheI for subsequent ligation. All segments subjected to PCR amplification were verified by sequencing. For generating human FHF2 splice-variants, we synthesized gene fragments and ligated into pcDNA3 using BamHI/EcoRI restriction sites. Human FHF1A and FHF1B were subcloned into ECFP-N3 vector, FHF2 splice variants and FHF3 were subcloned into pcDNA3. Truncations of the FHF1A amino-terminus (NT) were generated as fusion proteins with Venus fluorescent protein in the carboxy-terminus by encoding the relevant segments as noted in FIG. 12A in the forward PCR primer and the fluorophore as the template. Following PCR amplification, each fragment was ligated into pcDNA3 following restriction digest using NheI and XhoI enzymes. Plasmid encoding PKA catalytic subunit was constructed from pDONR222-PRKACA as described previously.
# HEK293 cells (ATCC CRL1573) were cultured on glass coverslips in 60-mm dishes and transfected using the Ca^2+-phosphate method as previously described. For electrophysiology experiments, we co-transfected 4-8 μg of cDNA encoding the desired channel variant with 4 μg of YFP, and 1 μg of simian virus 40 T-antigen. For experiments evaluating effect of FHF, we transfected the relevant FHF variant at 1:1 ratio as the α-subunit. For experiments considering competition between FHF1/2 isoforms, we co-transfected FHF1B and FHF2S variants at specified ratios (ranging from 1:1 to 1:10). The culture media was replaced following 4 h of transfection. Electrophysiology recordings were then performed at room temperature 1-2 days following transfection.
# Multichannel records were obtained in the on-cell configuration with either HEK293 cells or in aMVM as in our previous study. The pipette contained (in mM): 140 NaCl; 10 HEPES; 0.5 CaCl2; at 300 mOsm, adjusted with tetraethylammonium methanesulfonate; and pH 7.4 adjusted with tetraethylammonium hydroxide. To zero membrane potential, the bath contained (in mM): 132 K^+-glutamate; 5 KCl; 5 NaCl; 3 MgCl; 2 EGTA; 10 glucose; 20HEPES; at 300 mOsm adjusted with glucose; and pH 7.4 adjusted with NaOH. Data were acquired at room temperature using the integrating mode of an Axopatch 200A amplifier (Axon Instruments, Molecular Devices). Patch pipettes (3-10 MΩ) were pulled from ultra-thick-walled borosilicate glass (BF200-116-10; Sutter Instruments) using horizontal puller (P-97, Sutter Instruments), fire polished with a microforge (Narishige), and coated with Sylgard™ brand silicone elastomer (Dow Corning). Elementary currents were low-pass filtered at 2 kHz with a four-pole Bessel filter and digitized at 200 kHz with an ITC-18 unit (Instrutech), controlled by custom MATLAB software (Mathworks). For each pulse, we obtained P/8 leak pulses. Leak subtraction was performed using an automated algorithm which fit the kinetics of the leak current or the capacitive transient with convex optimization with L1 regularization. […]
# [1] = system: ischemia induced arrhythmias; conditions: rats; cited from earlier work
# late Na current = conditions: cited from earlier work
# [2] = biological target: NaV1.5 IQ/AA mutant (human) (UniProt Q14524); test: cell-based or functional assay
# neuronal Na channels = conditions: cited from earlier work
# [3] = in vivo; cited from earlier work
# [4] = biological target: NaV1.5 IFM/IQM mutant (human) (UniProt Q14524); test: cell-based or functional assay
# [5] = biological target: NaV1.5 LILA/WICW mutant (human) (UniProt Q14524); test: cell-based or functional assay
# [6] = acute animal toxicity tests; cited from earlier work
# [7] = system: aMVM from non-transgenic mice; test: Multichannel recordings of INa,L in cultured aMVM from non-transgenic mice; format: cell-based, mouse; conditions: 5 μM Forskolin following shRNA-mediated silencing of FHF2
# Text: As such, we sought to determine whether “protective” FHF variants may inhibit phosphorylation-dependent INa,L. To maximally upregulate INa,L, we co-expressed wild-type NaV1.5 with either (1) the catalytic Cα subunit of protein kinase A (PKA) or (2) a constitutively-active Ca^2+/CaM dependent kinase II (CaMKIIT286D) mutant in HEK293 cells. This maneuver likely triggers runaway phosphorylation of NaV1.5 and thereby furnishes a baseline to discern any potential FHF-dependent change. As expected, we observed an ˜5 fold increase in INa,L in the presence of the PKA Cα subunit (FIGS. 3D and 3E), and a 3-fold increase with CaMKIIT286D (FIGS. 3E and 11B). […] Encouraged by these findings, we dissected the functional role of this modulation in native cardiomyocytes (FIGS. 3F and 3G).
# Multichannel records were obtained in the on-cell configuration with either HEK293 cells or in aMVM as in our previous study. The pipette contained (in mM): 140 NaCl; 10 HEPES; 0.5 CaCl2; at 300 mOsm, adjusted with tetraethylammonium methanesulfonate; and pH 7.4 adjusted with tetraethylammonium hydroxide. […]
# Mice ventricular myocytes were isolated by enzymatic digestion using a Langendorff perfusion apparatus as previously described. […] The efficacy of viral transduction was assessed 24-48 hours post infection.
# [8] = biological target: T2, NaV1.5 S1904L mutant channel (Homo sapiens, UniProt Q14524, S1904L); test: Multichannel recordings of late Na current, NaV1.5 S1904L; format: cell-based
# T2 construct: expressed in transfected cells; host or cells: HEK293 (ATCC CRL1573)
# Method: HEK293 cells (ATCC CRL1573) were cultured on glass coverslips in 60-mm dishes and transfected using the Ca^2+-phosphate method as previously described. For electrophysiology experiments, we co-transfected 4-8 μg of cDNA encoding the desired channel variant with 4 μg of YFP, and 1 μg of simian virus 40 T-antigen. […] The culture media was replaced following 4 h of transfection. Electrophysiology recordings were then performed at room temperature 1-2 days following transfection.
# [9] = system: Ca^2+ channels and K^+ channels; conditions: cited from earlier work
# [10] = incubation with 10 μM ranolazine
molecule,measurement,setting,value
"9-32: FHF1A amino-terminal truncation peptide, residues 9-32, Venus fusion (LIRQKRQARESNSDRVSASKRRSS; also: Venus fusion, end not given here; UniProt P61328 9-32, looked up, fragment)","change in INa,L",NaV1.5 IQ/AA mutant,increase late channel openings
COc1ccccc1SC[C@@H](C)CN[C@@H]1COc2ccccc2SC1 [F15845],effect on ischemia induced arrhythmias,[1],prevented ischemia induced arrhythmias
same,potency/efficacy for blocking late Na current,late Na current,very high efficacy
"FixR (FHF-inhibiting-X-region), FHF1A amino-terminal residues 1-39, expressed as a Venus fusion (peptide)","fold reduction in INa,L (FIG. 5C)",[2],10 to 15 fold
"1-18: FHF1A amino-terminal truncation peptide, residues 1-18, Venus fusion (MAAAIASSLIRQKRQARE; also: Venus fusion, end not given here; UniProt P61328 1-18, looked up, fragment)","change in INa,L",NaV1.5 IQ/AA mutant,increase late channel openings
FC(F)(F)Oc1ccc(-c2ccc3nnc(C(F)(F)F)n3c2)cc1 [GS-458967],block of neuronal Na channels,neuronal Na channels,use-dependent block
same,brain penetration,[3],high brain penetration
same,potency/efficacy for blocking late Na current,late Na current,high efficacy
"FHF1A (human fibroblast growth factor homologous factor 1, splice variant A) (from UniProt P61328 1-243)",time constant of the excess inactivation (single-exponential decay),[4],17.8 ms
same,time constant of the excess inactivation (single-exponential decay),[5],12.3 ms
"12-17: FHF1A amino-terminal truncation peptide, residues 12-17, Venus fusion (QKRQAR; also: Venus fusion, end not given here; UniProt P61328 12-17, looked up, fragment)","change in INa,L",NaV1.5 IQ/AA mutant,increase late channel openings
Cc1noc(Cn2nc3ccc(-c4ccc(OC(F)(F)F)cc4)cn3c2=O)n1 [GS-462808],liver findings,[6],caused liver lesions
C=C[C@@]1(C)CC(=O)[C@]2(O)[C@@]3(C)[C@@H](O)CCC(C)(C)[C@@H]3[C@H](O)[C@H](OC(C)=O)[C@@]2(C)O1 [Forskolin],"increase in INa,L",[7],20 fold
"18-39: FHF1A amino-terminal truncation peptide, residues 18-39, Venus fusion (ESNSDRVSASKRRSSPSKDGRS; also: Venus fusion, end not given here; UniProt P61328 18-39, looked up, fragment)","change in INa,L",NaV1.5 IQ/AA mutant,increase late channel openings
FHF1B (human) (from UniProt P61328 1-181),"INa,L (Rpersist), multichannel recordings in HEK293 cells",[2],4 fold
same,"INa,L, multichannel recordings in HEK293 cells",[2],3 fold
same,"Rpersist against the ratio of FHF1B to FHF2S cDNA (ρ), half-maximal effect (ratio of FHF1B to FHF2S cDNA)",[2],0.4
COc1ccccc1OCC(O)CN1CCN(CC(=O)Nc2c(C)cccc2C)CC1 (stereo not drawn) [ranolazine],"reduction in INa,L",[8]; [10],3 fold
same,"inhibition of INa,L","[8]; ranolazine, FIG. 13I","inhibits INa,L"
same,interactions with other ionic currents,[9],non-selectivity interactions with other ionic currents
same,"reduction in INa,L",NaV1.5 IQ/AA mutant; [10],3 fold
same,"inhibition of INa,L","NaV1.5 IQ/AA mutant; ranolazine, FIG. 13G",modest inhibition
same,potency/efficacy for blocking late Na current,late Na current,suboptimal potency
"FHF1A amino terminus: entire FHF1A amino terminus expressed as a peptide (left off: large carriers, entire FHF1A amino terminus expressed as a peptide) peptide: MAAAIASSLIRQKRQARESNSDRVSASKRRSSPSKDGRSLCERHVLGVFSKVRFCSGRKRPVRRRP","change in INa,L",NaV1.5 IQ/AA mutant,strongly inhibited
